Results on 50 compounds are retold here after patent publication US7449463B2, “Morpholinyl containing benzimidazoles as inhibitors of respiratory syncytial virus replication” (Tibotec Pharmaceuticals Ltd., priority 2003, dated 2008).

Some results are limits rather than exact numbers.

One test deals with Respiratory Syncytial Virus. Description: microbe, parasite or virus in culture. It is filed as cell-based. Particulars: RSV-infected HeLa cells, MTT readout seven days after infection; −log of EC50 in molar units. An excerpt: In vitro Screening for Activity against Respiratory Syncytial Virus.
The percent protection against cytopathology caused by viruses (antiviral activity or EC50) achieved by tested compounds and their cytotoxicity (CC50) are both calculated from dose-response curves. The selectivity of the antiviral effect is represented by the selectivity index (SI), calculated by dividing the CC50 (cytotoxic dose for 50% of the cells) by the EC50 (antiviral activity for 50% of the cells).
Automated tetrazolium-based colorimetric assays were used for determination of EC50 and CC50 of test compounds. Flat-bottom, 96-well plastic microtiter trays were filled with 180 μl of Eagle's Basal Medium, supplemented with 5% FCS (0% for FLU) and 20 mM Hepes buffer. Subsequently, stock solutions (7.8× final test concentration) of compounds were added in 45 μl volumes to a series of triplicate wells so as to allow simultaneous evaluation of their effects on virus- and mock-infected cells. Five five-fold dilutions were made directly in the microtiter trays using a robot system. Untreated virus controls, and HeLa cell controls were included in each test. Approximately 100 TCID50 of Respiratory Syncytial Virus was added to two of the three rows in a volume of 50 μl. The same volume of medium was added to the third row to measure the cytotoxicity of the compounds at the same concentrations as those used to measure the antiviral activity. After two hours of incubation, a suspension (4×10^5 cells/ml) of HeLa cells was added to all wells in a volume of 50 μl. The cultures were incubated at 37° C. in a 5% CO2 atmosphere. Seven days after infection the cytotoxicity and the antiviral activity was examined spectrophotometrically. To each well of the microtiter tray, 25 μl of a solution of MTT (3-(4,5-dimethylthiazol-2-yl)-2,5-diphenyltetrazolium bromide) was added. The trays were further incubated at 37° C. for 2 hours, after which the medium was removed from each cup. Solubilization of the formazan crystals was achieved by adding 100 μl 2-propanol. Complete dissolution of the formazan crystals were obtained after the trays have been placed on a plate shaker for 10 min. Finally, the absorbances were read in an eight-channel computer-controlled photometer (Multiskan MCC, Flow Laboratories) at two wavelengths (540 and 690 nm). The absorbance measured at 690 nm was automatically subtracted from the absorbance at 540 nm, so as to eliminate the effects of non-specific absorption.
Take `Cc1ccc(CCO)c(NCc2ccc3nc(NCCCN4CCOCC4)n(Cc4nc(C)ccc4O)c3c2)c1` [Compound 7]: the Activity was found to be 9.6.

As for `Cc1ccc(O)c(Cn2c(NCCCN3CCOCC3)nc3ccc(CNc4cc(C#N)ccc4CCO)cc32)n1` [Compound 1], the Activity was 10. As for `Cc1ccc(O)c(Cn2c(NCCCN3CCOCC3)nc3ccc(CNc4cccc(Cl)c4)cc32)n1` [Compound 31], the Activity is reported as 8.6. Still for that read-out and setting: the figure for `Cc1ccc(NCCO)c(NCc2ccc3nc(NCCCN4CCOCC4)n(Cc4nc(C)ccc4O)c3c2)c1` [Compound 39] is 8.5; for `Cc1ccc(O)c(Cn2c(NCCCN3C[C@@H](C)O[C@@H](C)C3)nc3ccc(CO)cc32)n1` [Compound 175] it is 6.2. `Cc1cc(C)cc(N(CCCCO)Cc2ccc3nc(NCCCN4CCOCC4)n(Cc4nc(C)ccc4O)c3c2)c1` [Compound 61] gave an Activity of 9.5.

`Cc1ccc(O)c(Cn2c(NCCCN3CCOCC3)nc3ccc(CN(c4ccccc4)c4ccc(O)cc4)cc32)n1` [Compound 106]: the Activity is on record as 8.1. Still for that read-out and setting: with `Cc1ccc(CCC(C)O)c(NCc2ccc3nc(NCCCN4CCOCC4)n(Cc4nc(C)ccc4O)c3c2)c1` (centres unmarked) [Compound 15] the figure was 9.3; with `Cc1ccc(O)c(Cn2c(NCCCN3CCOCC3)nc3ccc(CNc4cc(C(F)(F)F)ccc4CCCO)cc32)n1` [Compound 13], 9.5. The same measure, in the same setting: with `Cc1ccc(O)c(Cn2c(NCCCN3CCOCC3)nc3ccc(CNc4cc(Cl)ccc4CCCO)cc32)n1` [Compound 4] the figure was 9.9; with `Cc1ccc(O)c(Cn2c(NCCCN3CCOCC3)nc3ccc(CNc4ccc(C(N)=O)cc4)cc32)n1` [Compound 38], 8.5. In the case of `Cc1ccc(O)c(Cn2c(NCCCN3CCOCC3)nc3ccc(CO)cc32)n1` [Compound 52], the Activity was determined as 7.2. Turning to `Cc1cccc(NCc2ccc3nc(NCCCN4CCOCC4)n(Cc4nc(C)ccc4O)c3c2)c1` [Compound 28], the Activity was 8.6. On the same count and under the same terms, with `Cc1ccc(O)c(Cn2c(NCCCN3CCOCC3)nc3ccc(CNc4cc(Br)ccc4CCCO)cc32)n1` [Compound 2] the figure was 10; with `Cc1ccc(CCC(N)=O)c(NCc2ccc3nc(NCCCN4CCOCC4)n(Cc4nc(C)ccc4O)c3c2)c1` [Compound 16], 9.3. Regarding `Cc1ccc(O)c(Cn2c(NCCCN3CCOCC3)nc3ccc(CNc4cccc(C)c4CCO)cc32)n1` [Compound 25], the Activity came to 8.9.

In turn, `Cc1cc(C)cc(N(CCCO)Cc2ccc3nc(NCCCN4CCOCC4)n(Cc4nc(C)ccc4O)c3c2)c1` [Compound 63] registered an Activity of 9.3.

The compound `C=Cc1ccc(CCO)c(NCc2ccc3nc(NCCCN4CCOCC4)n(Cc4nc(C)ccc4O)c3c2)c1` [Compound 6] registered an Activity of over 9.6. Still for that read-out and setting: with `COCCN(Cc1ccc2nc(NCCCN3CCOCC3)n(Cc3nc(C)ccc3O)c2c1)c1cc(C)cc(C)c1` [Compound 82] the figure was 8.6. Same read-out and setting: with `Cc1ccc(O)c(Cn2c(NCCCN3CCOCC3)nc3ccc(CNc4cc(C(N)=O)ccc4CCO)cc32)n1` [Compound 44] the figure was 8.1.

`Cc1ccc(O)c(Cn2c(NCCCN3CCOCC3)nc3ccc(CN(CCO)c4cccc(Br)c4)cc32)n1` [Compound 85] had an Activity of 9.3.

In turn, `Cc1ccc(O)c(Cn2c(NCCCN3CCOCC3)nc3ccc(CNc4ccccc4CCO)cc32)n1` [Compound 22] came in with an Activity of 9.1.

The compound `Cc1ccc(O)c(Cn2c(NC3CCN(CCN4CCOCC4)CC3)nc3ccc(CO)cc32)n1` [Compound 168] registered an Activity of 6.5. The same measure, in the same setting: the figure for `Cc1ccc(O)c(Cn2c(NCCCN3CCOCC3)nc3ccc(CN(c4ccccc4)c4cccc(O)c4)cc32)n1` [Compound 109] is 7.9.

In turn, `COc1ccc(CCO)c(NCc2ccc3nc(NCCCN4CCOCC4)n(Cc4nc(C)ccc4O)c3c2)c1` [Compound 9] came in with an Activity of 9.6.

The test is the same for the next values; noted with them: human respiratory syncytial virus, 168 h; RSV-infected HeLa cells, MTT readout seven days after infection; −log of EC50 in molar units.
With `Cc1cc(C)cc(NCc2ccc3nc(NCCCN4CCOC(CCO)C4)n(Cc4nc(C)ccc4O)c3c2)c1` (centres unmarked) [Compound 181, 2-(6-[(3,5-Dimethyl-phenylamino)-methyl]-2-{3-[2-(2-hydroxy-ethyl)-morpholin-4-yl]-propylamino}-benzoimidazol-1-ylmethyl)-6-methyl-pyridin-3-ol], the EC50 (commonly the concentration giving half of the maximal effect) is 6.31 nM. In other words, the single-digit nanomolar range.

On to `Cc1ccc(O)c(Cn2c(NCCCN3CCOCC3)nc3ccc(CNc4cc(S(C)(=O)=O)ccc4CCO)cc32)n1` [Compound 48], for which the EC50 is 20 nM. On the same count and under the same terms, the figure for `Cc1cc(C)cc(NCc2ccc3c(c2)nc(NCCCN2CCCOCC2)n3Cc2nc(C)ccc2O)c1` [Compound 174, 2-[5-[(3,5-Dimethyl-phenylamino)-methyl]-2-(3-[1,4]oxazepan-4-yl-propylamino)-benzoimidazol-1-ylmethyl]-6-methyl-pyridin-3-ol] is 2.51 nM.

Still in this test, the particulars now being: pEC50 (−log of EC50 when expressed in molar units), protection against RSV cytopathology.
Compound `C#Cc1ccc(CCO)c(NCc2ccc3nc(NCCCN4CCOCC4)n(Cc4cccc5cccnc45)c3c2)c1` [Compound 235] yielded an Activity of 8.3. On the same count and under the same terms, with `Cn1cnc2c(Cn3c(NCCCN4CCOCC4)nc4ccc(CNc5cc(C(F)(F)F)ccc5CCCO)cc43)cccc21` [Compound 241] the figure was 7.9. With `COc1ccc(C)nc1Cn1c(NCCCN2CCOCC2)nc2ccc(CNc3ccccc3CCCO)cc21` [Compound 239], the Activity stood at 7.9.

`Cc1cccc(Cn2c(NCCCN3CCOCC3)nc3ccc(CNc4ccccc4CCO)cc32)n1` [Compound 333] returned an Activity of 5.5.

`Cc1cccc(NCc2ccc3nc(NCCCN4CCOCC4)n(Cc4cccc5c4ncn5C)c3c2)c1CCO` [Compound 277]: the Activity is on record as 7.1. Still for that read-out and setting: the figure for `Cc1nc2c(nc1C)C(n1c(NCCCN3CCOCC3)nc3cc(CNc4ccccc4CO)ccc31)CCC2` (centres unmarked) [Compound 287] is 7.1. Still for that read-out and setting: with `COc1ccc(C)nc1Cn1c(NCCCN2CCOCC2)nc2ccc(CN(CCCC(N)=O)c3cc(C)cc(C)c3)cc21` [Compound 210, -{(3,5-Dimethyl-phenyl)-[3-(3-methoxy-6-methyl-pyridin-2-ylmethyl)-2-(3-morpholin-4-yl-propylamino)-3H-benzoimidazol-5-ylmethyl]-amino}-butyramide] the figure was 9; with `COc1ccc(C)nc1Cn1c(NCCCN2CCOCC2)nc2ccc(CN(CCO)c3cc(C)cc(C)c3)cc21` [Compound 240], 7.9; with `Cc1nc(C)c(Cn2c(NCCCN3CCOCC3)nc3ccc(CNc4ccccc4CCCO)cc32)nc1C` [Compound 243], 7.8. The same measure, in the same setting: the figure for `Cn1cnc2c(Cn3c(NCCCN4CCOCC4)nc4ccc(CNc5ccccc5CCN5CCOCC5)cc43)cccc21` [Compound 242] is 7.8.

For the compound `Cc1ccc(CCO)c(NCc2ccc3nc(NCCCN4CCOCC4)n(Cc4cccc(C)n4)c3c2)c1` [Compound 275], the Activity turned out to be 7.2. `COc1ccc(C)nc1Cn1c(NCCCN2CCOCC2)nc2cc(CNc3cc(C)ccc3CCCO)ccc21` [Compound 348] gave an Activity of 4.8. `Cc1nc2c(nc1C)C(n1c(NCCCN3CCOCC3)nc3cc(CNc4cc(Cl)cc(Cl)c4)ccc31)CCC2` (centres unmarked) [Compound 331] yielded an Activity of 5.7.

Take `Cc1cccc(NCc2ccc3nc(NCCCN4CCOCC4)n(Cc4nc(C)c(C)nc4C)c3c2)c1` [Compound 283]: the Activity is given as 7.1.

In the case of `Cc1cccc(Cn2c(NCCCN3CCOCC3)nc3ccc(CNc4ccccc4CCN4CCOCC4)cc32)n1` [Compound 345], the Activity came out at 5. Same read-out and setting: with `Cn1cnc2c(Cn3c(NCCCN4CCOCC4)nc4ccc(CNc5cc(Br)ccc5CCCO)cc43)cccc21` [Compound 232] the figure was 8.4; with `Cc1cc(C)cc(N(CCO)Cc2ccc3nc(NCCCN4CCOCC4)n(Cc4cccc(Br)n4)c3c2)c1.Cl` [Compound 278], 7.1; with `Cc1nc2c(nc1C)C(n1c(NCCCN3CCOCC3)nc3cc(CNc4ccccc4CCO)ccc31)CCC2` (centres unmarked) [Compound 286], 7.1. Same read-out and setting: with `Cn1cnc2c(Cn3c(NCCCN4CCOCC4)nc4ccc(CNc5ccccc5C(N)=O)cc43)cccc21` [Compound 288] the figure was 7; with `C#Cc1ccc(CCO)c(NCc2ccc3nc(NCCCN4CCOCC4)n(Cc4cccc5c4ncn5C)c3c2)c1` [Compound 236], 8.1; with `Cc1cc(C)cc(NCc2ccc3nc(NCCCN4CCOCC4)n(Cc4cccc(C)n4)c3c2)c1` [Compound 334], 5.5.

As for `Cc1nc2c(nc1C)C(n1c(NCCCN3CCOCC3)nc3cc(CNc4ccccc4C(N)=O)ccc31)CCC2` (centres unmarked) [Compound 340], the Activity worked out at 5.3.
